Where two headings read alike, the source gives them in different places.

Holding throughout (format): in vivo
Data set [1] relates to Echinochloa crus-galli (ECHCG). Kind of data set: Post-emergence herbicidal action against ECHCG. The gist of the method:
(§1)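 Post-emergence greenhouse spray, one-leaf stage, 600 l/ha water plus 0.5% additive; WP or EC formulations; application rates 320 g/ha or lower. Visual % damage vs untreated controls at ~3 weeks.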

Another data set deals with Zea mays (ZEAMX). The following applies: for Post-emergence action against ZEAMX in % (crop plant compatibility): 20 g/ha, effect in comparison to untreated controls. The gist of the method:
(§2)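 Effects were read visually as % versus untreated controls (0% = no effect, 100% = death) about 3 weeks post-treatment. Application was a post-emergence spray at the one-leaf stage of WP/EC formulations with 0.5% additive at 600 l/ha. Different dosages are denoted a, b and c.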

For a further data set, the system named is Oryza sativa (ORYSA). As to conditions: crop plant compatibility. In a few lines:
as §2

The subject of data set [2] is Lolium rigidum (LOLRI). Kind of data set: Post-emergence herbicidal action against LOLRI. In a few lines: as §1
For data set [3], the system named is Alopecurus myosuroides (ALOMY). Kind of data set: Post-emergence herbicidal action against ALOMY. As to conditions: visual rating about 3 weeks after treatment vs untreated controls (100% = plants have died, 0% = like control plants). In a few lines: as §1
Data set [4] has as its system Digitaria sanguinalis (DIGSA). Kind of data set: Post-emergence herbicidal action against DIGSA. As to conditions: visual rating about 3 weeks after treatment. The protocol: Seeds of monocotyledonous and dicotyledonous weeds and crop plants are placed in sandy loam in plastic or organic planting pots, covered with soil and cultivated in a greenhouse under controlled growth conditions. 2 to 3 weeks after sowing, the test plants are treated at the one-leaf stage. The compounds of the invention, formulated in the form of wettable powders (WP) or as emulsion concentrates (EC), are then sprayed onto the green parts of the plants as aqueous suspension or emulsion with addition of 0.5% additive at a water application rate of 600 l/ha (converted). After the test plants have been kept in the greenhouse under optimum growth conditions for about 3 weeks, the activity of the preparations is rated visually in comparison to untreated controls. For example, 100% activity=the plants have died, 0% activity=like control plants.
Tables B1 to B13 below show the effects of selected compounds of the general formula (I) according to Table 1 on various harmful plants and at an application rate corresponding to 320 g/ha or lower, which were obtained by the experimental procedure mentioned above. The appendices “a”, “b” and “c” give differentiation by dosage used with otherwise the same harmful plants tested.

Data set [5] concerns Polygonum convolvulus (POLCO). Briefly: Post-emergence herbicidal action against POLCO. In a few lines: as §1
Data set [6] relates to Viola tricolor (VIOTR). Briefly: Post-emergence herbicidal action against VIOTR. As to conditions: 320 g/ha. In a few lines:
as §1

In data set [7] the test system is Pharbitis purpurea (PHBPU). Briefly: Post-emergence herbicidal action against PHBPU. The gist of the method:
as §1

Data set [8] has as its system Verconica persica (VERPE). Kind of data set: Post-emergence herbicidal action against VERPE. The gist of the method:
as §1

Data set [9] concerns Setaria viridis (SETVI). Briefly: Post-emergence herbicidal action against SETVI. In a few lines:
as §1

Data set [10] has as its system Avena fatua (AVEFA). Kind of data set: Post-emergence herbicidal action against AVEFA. As to conditions: visual rating about 3 weeks after treatment. The gist of the method: as §1
In data set [11] the test system is Viola tricolor (VIOTR). Briefly: Pre-emergence herbicidal action against VIOTR. The following applies: 320 g/ha, Viola tricolor. The gist of the method: (§3)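 Herbicide applied to soil before seedling emergence, at 600 l/ha spray volume with 0.5% additive and rates up to 320 g/ha. Evaluation: visual percentage effect, about 3 weeks later, greenhouse-grown pots compared with untreated ones.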

The subject of data set [12] is Verconica persica (VERPE). Kind of data set: Pre-emergence herbicidal action against VERPE. The following applies: dosage 320 g/ha. In a few lines: as §3
For data set [13], the system named is Amaranthus retroflexus (AMARE). Briefly: Post-emergence herbicidal action against AMARE. As to conditions: 80 g/ha, visual rating about 3 weeks after treatment vs untreated controls (100% = plants have died, 0% = like control plants). In a few lines:
as §1

The subject of data set [14] is Echinochloa crus-galli (ECHCG). Briefly: Pre-emergence herbicidal action against ECHCG. The gist of the method:
as §3

Data set [15] has as its system Amaranthus retroflexus (AMARE). Kind of data set: Pre-emergence herbicidal action against AMARE. As to conditions: visual scoring after about 3 weeks vs untreated controls. In a few lines:
as §3

The test system of data set [16] is Setaria viridis (SETVI). Briefly: Pre-emergence herbicidal action against SETVI. The gist of the method: as §3
Data set [17] has as its system Pharbitis purpurea (PHBPU). Briefly: Pre-emergence herbicidal action against PHBPU. The following applies: dosage 320 g/ha. The gist of the method: as §3
Data set [18] relates to Abutilon theophrasti (ABUTH). Kind of data set: Post-emergence herbicidal action against ABUTH. The following applies: 80 g/ha, visual rating about 3 weeks after treatment vs untreated controls (100% = plants have died, 0% = like control plants). The gist of the method: as §1
The test system of data set [19] is Alopecurus myosuroides (ALOMY). Kind of data set: Pre-emergence herbicidal action against ALOMY. The following applies: scored visually after about 3 weeks, 100% = plants have died. In a few lines:
as §3

For data set [20], the system named is Matricaria inodora (MATIN). Kind of data set: Pre-emergence herbicidal action against MATIN. The gist of the method:
as §3

Data set [21] concerns Matricaria inodora (MATIN). Briefly: Post-emergence herbicidal action against MATIN. As to conditions: dosage 80 g/ha. The gist of the method: as §1
Data set [22] deals with Lolium rigidum (LOLRI). Briefly: Pre-emergence herbicidal action against LOLRI. The following applies: dosage 320 g/ha. The gist of the method: as §3
For data set [23], the system named is Avena fatua (AVEFA). Briefly: Pre-emergence herbicidal action against AVEFA. The following applies: visual scoring after about 3 weeks vs untreated controls. In a few lines:
as §3

For data set [24], the system named is Polygonum convolvulus (POLCO). Kind of data set: Pre-emergence herbicidal action against POLCO. As to conditions: dosage 320 g/ha. In a few lines:
as §3

Setting [25] is: 20 g/ha, effect vs untreated controls.
Setting [26] is: 80 g/ha, effect in comparison to untreated controls.

For `COC(=O)CCOC(=O)[C@@H](C)Oc1nn(-c2ccccn2)c(-c2ccc(F)nc2)c1Br` [Example I-290], the “Post-emergence action against ECHCG in %” value in data set [1] (dosage 80 g/ha) was found to be 80%; in data set [1] (dosage 320 g/ha) it was 90%. Also, the “Post-emergence action against ZEAMX in % (crop plant compatibility)” value in the data set with Zea mays (ZEAMX) is 0%. The “Post-emergence action against ZEAMX in %” value in the data set on Zea mays (ZEAMX) (crop plant compatibility, 80 g/ha, effect vs untreated controls) was 10%. The “Post-emergence action against ORYSA in %” value in the data set on Oryza sativa (ORYSA) (setting [25]) amounted to 0%; with Oryza sativa (ORYSA) (setting [26]), 10%. Also, the “Post-emergence action against LOLRI in %” value in the data set with Lolium rigidum (LOLRI) [2] (dosage 320 g/ha) worked out at 80%. The “Post-emergence action against ALOMY in %” value in data set [3] (320 g/ha) amounted to 90%. For the same molecule, the “Post-emergence action against DIGSA in %” value in [4] (80 g/ha) and in data set [4] (320 g/ha) was 90% in each case. Also, the “Post-emergence action against POLCO in %” value in data set [5] (dosage 320 g/ha) was found to be 80%. In addition, in the data set with Viola tricolor (VIOTR) [6], the “Post-emergence action against VIOTR in %” value is reported as 80%. Also, the “Post-emergence action against PHBPU in %” value in data set [7] (dosage 320 g/ha) is 90%. The “Post-emergence action against VERPE in %” value is 80% in data set [8] (320 g/ha, VERPE) and 80% in data set [8] (dosage 80 g/ha). Further, the “Post-emergence action against SETVI in %” value in the data set with Setaria viridis (SETVI) [9] (dosage 80 g/ha) and in the data set with Setaria viridis (SETVI) [9] (dosage 320 g/ha) was 90% each time.
Consider `COC(=O)C(C)OC(=O)C(C)Oc1nn(-c2ccccn2)c(-c2ccc(F)nc2)c1Br` (centres unmarked) [Example I-288], for which the “Post-emergence action against ECHCG in %” value in data set [1] (dosage 320 g/ha) is 80%. Besides, the results for the “Post-emergence action against ORYSA in %” value in the data set with Oryza sativa (ORYSA) (setting [25]) and in the data set with Oryza sativa (ORYSA) (setting [26]) were 0% and 10%, respectively. In addition, the “Post-emergence action against LOLRI in %” value in the data set on Lolium rigidum (LOLRI) [2] (dosage 80 g/ha) and with Lolium rigidum (LOLRI) [2] (dosage 320 g/ha) was 80% throughout. Further, the “Post-emergence action against ALOMY in %” value in [3] (320 g/ha) came out at 90%. Moreover, the “Post-emergence action against DIGSA in %” value in [4] (80 g/ha) came out at 80%; in data set [4] (320 g/ha) it was 90%. In [5] (dosage 320 g/ha), the “Post-emergence action against POLCO in %” value is 80%. Besides, the “Post-emergence action against VIOTR in %” value with Viola tricolor (VIOTR) [6] is 80%. Moreover, the “Post-emergence action against PHBPU in %” value in [7] (dosage 80 g/ha) came out at 80%; in data set [7] (dosage 320 g/ha), 90%. Further, the “Post-emergence action against VERPE in %” value in data set [8] (320 g/ha, VERPE) is reported as 80%; in [8] (dosage 80 g/ha), 80%. The “Post-emergence action against SETVI in %” value in the data set with Setaria viridis (SETVI) [9] (dosage 80 g/ha) and in the data set on Setaria viridis (SETVI) [9] (dosage 320 g/ha) was 90% in each case. Also, the “Post-emergence action against AVEFA in %” value in the data set with Avena fatua (AVEFA) [10] (80 g/ha) worked out at 80%; in the data set with Avena fatua (AVEFA) [10] (320 g/ha), 90%.
For `CCOC(=O)COc1nn(-c2ccccn2)c(-c2ccc(F)nc2)c1Cl` [Example I-100], the “Pre-emergence action against VIOTR in %” value in the data set on Viola tricolor (VIOTR) [11] was 90%. In data set [1] (dosage 80 g/ha), the “Post-emergence action against ECHCG in %” value is listed as 90%. Besides, in [12], the “Pre-emergence action against VERPE in %” value is on record as 100%. The “Post-emergence action against AMARE in %” value in [13] stood at 90%. Besides, the “Pre-emergence action against ECHCG in %” value is 80% in data set [14] (dosage 80 g/ha) and 100% in data set [14] (dosage 320 g/ha). In addition, the “Pre-emergence action against AMARE in %” value in [15] (80 g/ha) was 90%; in [15] (320 g/ha), 100%. Further, the “Pre-emergence action against SETVI in %” value is 90% in the data set with Setaria viridis (SETVI) [16] (dosage 80 g/ha) and 100% in the data set on Setaria viridis (SETVI) [16] (dosage 320 g/ha). In data set [17], the “Pre-emergence action against PHBPU in %” value stood at 90%. In addition, the “Post-emergence action against ZEAMX in % (crop plant compatibility)” value in the data set with Zea mays (ZEAMX) was 10%. In the data set with Oryza sativa (ORYSA) (setting [25]), the “Post-emergence action against ORYSA in %” value is 0%. Moreover, the “Post-emergence action against LOLRI in %” value in the data set with Lolium rigidum (LOLRI) [2] (dosage 80 g/ha) came to 80%. Also, the “Post-emergence action against ALOMY in %” value in data set [3] (80 g/ha) came out at 100%. In addition, in data set [18], the “Post-emergence action against ABUTH in %” value was determined as 80%. Moreover, in data set [5] (dosage 80 g/ha), the “Post-emergence action against POLCO in %” value is 90%. Further, the “Pre-emergence action against ALOMY” value in data set [19] (80 g/ha) and in [19] (320 g/ha) was 100% in each case. The “Pre-emergence action against MATIN in %” value in data set [20] (dosage 80 g/ha) and in data set [20] (dosage 320 g/ha) was 80% throughout. The “Post-emergence action against PHBPU in %” value in [7] (dosage 80 g/ha) worked out at 90%. In addition, in data set [8] (dosage 80 g/ha), the “Post-emergence action against VERPE in %” value is listed as 80%. For the same molecule, in the data set on Setaria viridis (SETVI) [9] (dosage 80 g/ha), the “Post-emergence action against SETVI in %” value turned out to be 80%. The “Post-emergence action against MATIN in %” value in [21] is on record as 90%. Besides, the “Pre-emergence action against LOLRI in %” value with Lolium rigidum (LOLRI) [22] came to 100%. Besides, the “Post-emergence action against AVEFA in %” value in the data set with Avena fatua (AVEFA) [10] (80 g/ha) came out at 100%. For the same molecule, the “Pre-emergence action against AVEFA in %” value with Avena fatua (AVEFA) [23] (80 g/ha) is listed as 80%; in the data set on Avena fatua (AVEFA) [23] (320 g/ha), 90%. Moreover, the “Pre-emergence action against POLCO in %” value in data set [24] stood at 90%.

For the origin of these results see patent US20240041042A1, “1-(PYRIDYL)-5-AZINYLPYRAZOLE DERIVATIVES, AND THEIR USE FOR CONTROL OF UNDESIRED PLANT GROWTH” (Bayer Aktiengesellschaft, priority 2020, published 2024).
